{
  "source": "paper PMC7179450",
  "about": "“Primary Human Hepatocytes, But not HepG2 or Balb/c 3T3 Cells, Efficiently Metabolize Salinomycin and Are Resistant to Its Cytotoxicity” (Molecules, 2020)",
  "key": {"[1]": {"tested_on": "primary human hepatocytes (PHH)", "assay": "MTT assay, cytotoxicity in primary human hepatocytes", "format": "cell-based", "conditions": "Hepatocyte, mean ± SEM, n = 3, read-out: EC50 (effective concentration)", "experimental": "Cryopreserved PHH were purchased from the Primacyt GmbH (Schwerin, Germany). Two different lots were chosen based on CYP activity. The donor was a person. The post-thaw viability was 94.6% for lot HH160531 (used in two repetitions) and 85.0% for lot HH130805. The initial cell viability was determined with the trypan blue exclusion test. The cells were thawed and purified using the Plating and Thawing Kit (Primacyt GmbH). Purified hepatocytes were resuspended in Hepatocyte Plating Medium (Primacyt GmbH) and seeded on collagen-coated 96-well plates at a density of 9 × 10^5 cell/mL and incubated at 37 °C with 5% CO2. After 6 h of incubation, the medium was removed and the cells were washed with PBS. Then Human Hepatocyte Maintenance Medium (HHMM) (Primacyt GmbH) with the studied drugs was added to hepatocytes (100 µL/well). […]\nThe concentration ranges of the drugs were chosen according to their solubility and their plasma level. […] The cytotoxicity was assessed after 24 and 48 h of exposure of cell lines or after 12 and 24 h exposure of PHH. […]\nThe metabolic activity of living cells was assessed by measuring the activity of dehydrogenases. […] The plate was shaken for 15 min at room temperature and transferred to a microplate reader to measure the absorbance at 570 nm, using a blank as a reference. Cytotoxicity was expressed as a percentage of the negative control (0.1% or 0.2% DMSO)."}, "[2]": {"tested_on": "HepG2 cells", "assay": "Biotransformation of SAL and metabolites in HepG2 (LC-MS/MS)", "format": "in vitro ADME, human", "conditions": "HepG2, only after induction with prednisolone, 24 h (Figure 2C)", "experimental": "(§1) The HepG2 cell line was purchased from the American Type Culture Collection (ATCC® HB-8065™). The cells were cultured in Minimum Essential Medium Eagle (MEME) (Sigma–Aldrich Co. (St. Louis, MO, USA)). Normal murine embryonic fibroblasts, Balb/c 3T3 clone A31 cell line (gift from Department of Swine Diseases of the National Veterinary Research Institute in Pulawy) was cultured in Dulbecco’s Modified Eagle’s Medium (DMEM) (Invitrogen Corporations (Paisley, UK)). The media were supplemented with 10% BCS (Balb/c 3T3), 10% FBS (HepG2), 1% L-glutamine, and 1% antibiotic solution. The cells were maintained in 75 cm^2 cell culture flasks in humidified incubator at 37 °C, in an atmosphere of 5% CO2. […] The initial cell viability was determined with the trypan blue exclusion test. […]\n(§2) The medium samples from microplate wells were collected for identifying SAL metabolites and normalized to a cell number. An aliquot of 200 µL of each sample was measured to Eppendorf tube. […] The dry residue was reconstituted in 50% acetonitrile and analyzed with LC-MS/MS. […]\n(§3) SAL (m/z 773.4 to m/z 431.3) was monitored in multiple reaction monitoring (MRM) modes. […]\n(§4) The signals for further analysis were selected with the LightSight 2.3 software. […] These MRM transitions (with 20 chromatographic peaks) were then quantified with Multiquant 2.1. software. Quantitative analysis was performed for SAL. […]"}, "[3]": {"tested_on": "Balb/c 3T3 fibroblasts", "assay": "Biotransformation of SAL and metabolites in Balb/c 3T3 fibroblasts (LC-MS/MS)", "format": "in vitro ADME, mouse", "conditions": "24 h (Figure 2B)", "experimental": "as §1, §2, §3, §4"}, "[4]": {"tested_on": "dogs", "conditions": "chronic toxicity study in dogs; cited from earlier work"}, "[5]": {"tested_on": "rats", "conditions": "cited from earlier work"}, "[6]": {"tested_on": "rabbits", "conditions": "cited from earlier work"}, "[7]": {"tested_on": "cell lines", "conditions": "cited from earlier work"}},
  "note": "Like-named read-outs stand apart in the source and are kept apart here.",
  "data": [
    {"smiles": "CC[C@@H](C(=O)[C@@H](C)[C@@H](O)[C@H](C)[C@@H]1O[C@@H]([C@@H](CC)C(=O)O)CC[C@@H]1C)[C@H]1O[C@]2(C=C[C@@H](O)[C@]3(CC[C@@](C)([C@H]4CC[C@](O)(CC)[C@H](C)O4)O3)O2)[C@H](C)C[C@@H]1C", "note": "[SAL, salinomycin]", "values": [
      {"measurement": "EC50", "setting": "[1]; 12 h exposure", "value": "> 25", "unit": "µg/mL"},
      {"measurement": "EC50", "setting": "[1]; 24 h exposure", "value": "> 25", "unit": "µg/mL"},
      {"measurement": "percentage of SAL metabolised", "setting": "[2]", "value": "ca. 20%"},
      {"measurement": "biotransformation of SAL", "setting": "[3]", "value": "no biotransformation"},
      {"measurement": "NOAEL (No Observed Adverse Effect Level)", "setting": "[4]", "value": 500, "unit": "µg/kg b.w."},
      {"measurement": "LD50", "setting": "[5]", "value": 50, "unit": "mg/kg b.w."},
      {"measurement": "LD50", "setting": "[6]", "value": 21, "unit": "mg/kg b.w."},
      {"measurement": "EC50", "setting": "[7]", "value": "0.1 to 30", "unit": "µM"},
      {"measurement": "EC50 values, cytotoxicity to cell lines", "setting": "[7]", "value": "0.08 to 22.5", "unit": "µg/mL"}
    ]}
  ]
}
